Measured values from patent US20250026741A1, “INHIBITORS OF THE ONCOGENIC SHP2 PHOSPHATASE AND USES THEREOF” (Sanford Burnham Prebys Medical Discovery Institute, priority 2021, published 2025).

Tests used:
[1] = tested on: KYSE-520 esophageal cancer cells; experiment: Cell viability assay (CellTiter-Glo), KYSE-520; format: cell-based; details: KYSE-520 cells, various concentrations, 3 d
From the text: (§1) Inhibition of SHP2 has been reported to inhibit the growth of cancer cells including Kasumi-1 acute myeloid leukemia (AML) and KYSE-520 esophageal cancer cells. […] Cell viability is shown as a percentage of the vehicle (DMSO) control and represents the mean±SD. B) #02 dose-response curves in cell viability assays using Kasumi-1, KYSE-520, MOLM-13, and […] cells after 3 d in culture. The percentages compared to DMSO vehicle control were curve fitted using nonlinear regression (log[inhibitor] vs. normalized response, variable slope) and represent the mean±SD. C) Cell viability of […] and MDA-MB-468 triple-negative breast cancer (TNBC) cells in the presence of various concentrations of #02 or the SHP2 allosteric inhibitor SHP099 after 5 d in culture. Cell viability is shown as a percentage of DMSO vehicle control, representing mean±SD, and curve fitted as in B). D) Colony formation assay (11 d) of […] and MDA-MB-468 TNBC cells in the presence of various concentrations of #02 or the SHP2 allosteric inhibitor SHP099. E) Phospho-ERK1/2 (p-ERK1/2) immunoblot analysis from total cell lysates of MOLM-13 AML cells treated with #02 at the indicated concentrations, or with SHP2 allosteric inhibitor RMC-4550 (RMC, 1 μM) for 3 h or 24 h. The quantitation of p-ERK1/2 levels is shown as the percentage of the DMSO (vehicle) control and represents data from three independent experiments (mean±SD). F) Viability of AML patient-derived cells in the presence of 10 μM #02 or 10 μM SHP2 allosteric inhibitor RMC-4550 after 2 d, 4 d, or 6 d in culture. Cell viability is shown as a percentage of the DMSO vehicle control and represents the mean±SD (*p<0.05; **p<0.01; ****p<0.0001; unpaired test with Welch's correction) G) Viability of MOLM-13 cells and MOLM-13-Cas9-mCherry cells with SHP2 knockout (KO) in the presence of #01, #02, and allosteric inhibitor SHP099 at various concentrations (10-point dose-response). The percentages compared to the DMSO vehicle control were curve fitted using nonlinear regression (log[inhibitor] vs. normalized response, variable slope) and represent the mean±SD. SHP2 protein levels in regular MOLM-13 cells (WT), MOLM-13-Cas9-mCherry cells (Cas9), and MOLM-13-Cas9-mCherry cells with SHP2 KO (SHP2 KO) were evaluated by immunoblot analysis using SHP2 antibodies.
(§2) Viability of AML, esophageal carcinoma, and TF-1 cells was assessed using the ATP-depletion assay CellTiter-Glo® (Promega). Cells were harvested at 1×10^6/mL to 2×10^6 cells/mL with cell numbers determined by trypan blue using the Countess Cell counter (Thermo Scientific) and resuspended in culture media. […] Luminescence was read on a Tecan Spark® Multimode Microplate Reader and data analyzed using Graph Pad Prism software.

[2] = target: PTP1B catalytic domain (Homo sapiens (Human), UniProt P18031); experiment: DiFMUP phosphatase inhibition assay, PTP1B; format: biochemical; details: for IC50: catalytic domain, DiFMUP at Km (25 μM); for fold selectivity for SHP2 over PTP1B: from IC50 values against catalytic domains
Protocol: Selectivity is one of the biggest challenges in PTP inhibitor development. […] Similar to SHP2, we adapted a 384-well plate format DiFMUP assay for recombinant PTP1B and STEP and performed Michaelis-Menten experiments to determine DiFMUP Km values for each phosphatase. IC50 values of our inhibitors for PTP1B and STEP were determined in 10-point dose-response assays with DiFMUP used at the concentration corresponding to the respective Km value. […] Other inhibitors with good relative selectivity for SHP2 included #02 (13-fold selective over PTP1B; 73-fold selective over STEP) and #05 (5-fold selective over PTP1B; >71-fold selective over STEP).
SHP2 inhibitors were tested at room temperature (RT) in a 384-well plate format standard phosphatase fluorescence intensity assay using DiFMUP (Invitrogen/Thermo Fisher Scientific, Carlsbad, CA) as a substrate and a total reaction volume of 25 μL. SHP2 inhibitors or vehicle (DMSO) were spotted in triplicate into a black Greiner FLUOTRAC™ 200 384-well microplate (#781076, Greiner) for a 10-point dose-response assay using an Echo®555 Liquid Handler (Labcyte, Inc., San Jose, CA). PTP working solutions were prepared at a 0.625 nM concentration (for a final concentration of 0.5 nM) in buffer containing 50 mM Bis-Tris pH 6.0, 50 mM NaCl, 5 mM DTT, and 0.01% Tween® 20. Prior to the assay, a dually phosphorylated insulin receptor substrate 1 (IRS-1) peptide [625 nM (500 nMfinal) (30)] was added to full-length WT SHP2 working solutions and incubated for 20 min. DiFMUP working solutions at 5× final concentration were prepared in 50 mM Bis-Tris pH 6.0, 50 mMNaCl, and 0.01% Tween 20. 20 μL of PTP working solution was dispensed into the microplate and incubated with inhibitor for 20 min at RT. […] The reaction was initiated by addition of 5 μL DiFMUP working solutions. Fluorescence intensity was measured in kinetic mode (every minute for 7 or 10 min) using a Tecan Spark® Multimode Microplate Reader (Tecan, Groedig, Austria) with an excitation wavelength of 360 nm and an emission wavelength of 460 nm. The initial rates were determined from the linear progression curves of the PTP reaction. The nonenzymatic hydrolysis of the substrate was corrected by using a control without addition of enzyme. IC50 values were calculated from the corrected initial rates by nonlinear regression using the program GraphPad Prism (GraphPad Software, Inc., San Diego, CA) Version 8. Dose-response inhibition assays of SHP2cat using the substrate OMFP were performed similarly as described above for DiFMUP. OMFP was used at a concentration corresponding to its Km value for SHP2cat (50 μM final). Fluorescence intensity was measured in kinetic mode (every minute for 10 min) using a Tecan Spark Multimode Microplate Reader with an excitation wavelength of 485 nm and an emission wavelength of 535 nm. Initial rates were determined and IC50 vales calculated as described above.

[3] = tested on: Kasumi-1 acute myeloid leukemia (AML) cells; experiment: Cell viability assay (CellTiter-Glo), Kasumi-1; format: cell-based; details: Kasumi-1 cells, various concentrations, 3 d
From the text: as §1, §2

PTP1B catalytic domain, sequence (P18031 1-300): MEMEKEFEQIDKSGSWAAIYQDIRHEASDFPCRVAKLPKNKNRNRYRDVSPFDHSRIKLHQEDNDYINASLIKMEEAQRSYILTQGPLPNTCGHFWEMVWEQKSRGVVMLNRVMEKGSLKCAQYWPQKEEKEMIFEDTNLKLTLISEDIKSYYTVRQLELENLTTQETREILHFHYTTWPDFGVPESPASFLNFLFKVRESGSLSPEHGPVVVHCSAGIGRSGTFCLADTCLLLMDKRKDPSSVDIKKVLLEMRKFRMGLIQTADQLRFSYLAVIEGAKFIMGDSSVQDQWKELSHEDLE

IC50 [2] [µM] | fold selectivity for SHP2 over PTP1B [2] [fold] | SMILES | effect on cancer cell growth [1] | effect on cancer cell growth [3]
9.4 | 13 | O=C(Nc1ccccc1)c1cc(-c2ccc(/C=C3\Sc4ccccc4C3=O)o2)ccc1O [#02, (Z)-2-hydroxy-5-(5-((3-oxobenzo[b]thiophen-2(3H)-ylidene)methyl)furan-2-yl)-N-phenylbenzamide] | dose-dependently inhibited cancer cell growth | dose-dependently inhibited cancer cell growth
7.4 | 5 | N#Cc1cc(-c2ccc(/C=C3\Sc4ccccc4C3=O)o2)ccc1O [#05, (Z)-2-Hydroxy-5-(5-((3-oxobenzo[b]thiophen-2(3H)-ylidene)methyl)furan-2-yl)benzonitrile] | dose-dependently inhibited cancer cell growth | dose-dependently inhibited cancer cell growth
6.8 | 31 | Nc1ccc(NC(=O)c2cc(-c3ccc(/C=C4\Sc5ccccc5C4=O)o3)ccc2O)cc1 [#01, (Z)—N-(4-Aminophenyl)-2-hydroxy-5-(5-((3-oxobenzo[b]thiophen-2(3H)-ylidene)methyl)furan-2-yl)benzamide] | dose-dependently inhibited cancer cell growth | dose-dependently inhibited cancer cell growth
